Format in all cases: in vivo
The subject of test [1] is Meloidogyne incognita. Kind of test: Meloidogyne incognita test. The following applies: 336 h, lettuce, after 14 days, read-out: nematicidal efficacy (formation of galls). Summed up:
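Gall formation on lettuce roots scored after 14 days: 0% means gall count equals untreated control, 100% means none. Sand vessels held the compound (acetone concentrate diluted in water), southern root-knot nematode egg/larvae suspension and lettuce seeds.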

The test system of test [2] is Myzus persicae. Kind of test: Myzus persicae spray test (Chinese cabbage leaf discs). The following applies: foliar, 120 h, 500 g/ha, after 5-6 days, read-out: efficacy. The method, boiled down:
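Formulated compound in acetone/dimethylformamide, diluted in water with 1000 ppm emulsifier, was sprayed onto Brassica pekinensis leaf discs carrying mixed-stage Myzus persicae. Percent mortality was read 5-6 days later (0% = no aphids killed, 100% = all killed).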

Test [3] has as its system Myzus persicae. Put plainly: Myzus persicae oral test. The following applies: 120 h, 20 ppm, oral uptake, after 5 days, read-out: efficacy. Summed up: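 Aphids of mixed ages imbibe, through parafilm, compound solution (acetone stock, water-diluted) combined with sugar-supplemented IPL41 medium to 200 μl. Efficacy read at day 5 as percent killed, 0% meaning no deaths.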

For `Cc1cc(C(=O)NS(=O)(=O)c2ccccc2Cl)nn1-c1c(F)cccc1F` [Example 1], the pest or weed control at 20 ppm in test [1] and in test [3] was 100% throughout. Moreover, the pest or weed control at 500 g/ha in test [2] amounted to 100%.

Take `Cn1nc(C(=O)NS(=O)(=O)c2c(Cl)cccc2Cl)nc1-c1c(F)cccc1F` [Example 13]: the pest or weed control at 20 ppm in test [1] was 90%; in test [3], 100%. The pest or weed control at 500 g/ha in test [2] was 100%.

For the compound `Cn1nc(C(=O)NS(=O)(=O)c2ccccc2Cl)nc1-c1ccccc1Cl` [Example 14], the pest or weed control at 20 ppm in test [1] was determined as 90%; in test [3], 100%. Moreover, the pest or weed control at 500 g/ha in test [2] was 90%.

As for `COc1ccc(Cl)c(S(=O)(=O)NC(=O)c2nc(-c3ccccc3Cl)n(C)n2)c1` [Example 15], the pest or weed control at 20 ppm in test [1] turned out to be 90%; in test [3], 100%. In test [2], the pest or weed control at 500 g/ha was 90%.

As for `Cc1ccccc1-c1nc(C(=O)NS(=O)(=O)c2ccccc2C)cn1C` [Example 29], the pest or weed control at 20 ppm in test [1] was 90%; in test [3], 100%. Further, the pest or weed control at 500 g/ha in test [2] is 100%.

Turning to `Cn1cc(C(=O)NS(=O)(=O)c2cccc(Cl)c2)nc1-c1ccccc1Cl` [Example 33], the pest or weed control at 20 ppm in test [1] and in test [3] was 100% throughout. In addition, in test [2], the pest or weed control at 500 g/ha was determined as 90%.

As to `Cn1cc(C(=O)NS(=O)(=O)c2cccc(Cl)c2Cl)nc1-c1ccccc1Cl` [Example 38], the pest or weed control at 20 ppm in test [1] and in test [3] was 100% throughout. In addition, the pest or weed control at 500 g/ha in test [2] stood at 90%.

As for `Cc1c(C(=O)NS(=O)(=O)c2ccccc2)nc(-c2ccccc2Cl)n1C` [Example 39], the pest or weed control at 20 ppm in test [1] and in test [3] was 90% throughout. Further, the pest or weed control at 500 g/ha in test [2] was found to be 90%.

As for `CCn1cc(C(=O)NS(=O)(=O)c2ccccc2)nc1-c1ccccc1Cl` [Example 41], the pest or weed control at 20 ppm in test [1] and in test [3] was 90% in each case. Also, the pest or weed control at 500 g/ha in test [2] was 90%.

In the case of `Cn1cc(C(=O)NS(=O)(=O)c2ccc(Cl)cc2)nc1-c1c(Cl)cccc1Cl` [Example 43], the pest or weed control at 20 ppm in test [1] was determined as 100%; in test [3], 90%. For the same compound, the pest or weed control at 500 g/ha in test [2] came out at 90%.

On to `Cn1cc(C(=O)NS(=O)(=O)c2ccccc2)nc1-c1c(Cl)cccc1Cl` [Example 44], for which the values for the pest or weed control at 20 ppm in test [1] and in test [3] were 100% and 90%, respectively. Besides, in test [2], the pest or weed control at 500 g/ha worked out at 90%.

On to `Cn1cc(C(=O)NS(=O)(=O)c2cccc(Cl)c2)nc1-c1c(F)cccc1F` [Example 45], for which the pest or weed control at 20 ppm in test [1] came to 100%; in test [3], 90%. In addition, the pest or weed control at 500 g/ha in test [2] was 90%.

`Cn1cc(C(=O)NS(=O)(=O)c2ccc(Cl)cc2)nc1-c1ccccc1F` [Example 51]: the pest or weed control at 20 ppm amounted to 100% in test [1] and 90% in test [3]. Besides, the pest or weed control at 500 g/ha in test [2] is 90%.

Take `Cn1cc(C(=O)NS(=O)(=O)c2ccccc2OC(F)(F)F)nc1-c1ccccc1Cl` [Example 55]: the pest or weed control at 20 ppm in test [1] is 90%; in test [3], 100%. Besides, the pest or weed control at 500 g/ha in test [2] came out at 90%.

As for `Cn1cc(C(=O)NS(=O)(=O)Cc2ccccc2Cl)nc1-c1ccccc1Cl` [Example 62], the values for the pest or weed control at 20 ppm in test [1] and in test [3] were 90% and 100%, respectively. Further, in test [2], the pest or weed control at 500 g/ha turned out to be 90%.

In the case of `CCn1cc(C(=O)NS(=O)(=O)c2ccccc2Cl)nc1-c1ccccc1Cl` [Example 67], the pest or weed control at 20 ppm in test [1] was found to be 90%; in test [3] it was 100%. Besides, in test [2], the pest or weed control at 500 g/ha turned out to be 90%.

With `CCn1cc(C(=O)NS(=O)(=O)c2c(Cl)cccc2Cl)nc1-c1ccccc1Cl` [Example 69], the pest or weed control at 20 ppm in test [1] came out at 90%; in test [3], 100%. Also, the pest or weed control at 500 g/ha in test [2] stood at 90%.

For `Cc1c(C(=O)NS(C)(=O)=O)nc(-c2ccccc2Cl)n1C` [Example 71], the pest or weed control at 20 ppm in test [1] was 90%; in test [3], 100%. The pest or weed control at 500 g/ha in test [2] came to 90%.

For `CC(C)S(=O)(=O)NC(=O)c1cn(C)c(-c2c(Cl)cccc2Cl)n1` [Example 81], the results for the pest or weed control at 20 ppm in test [1] and in test [3] were 100% and 90%, respectively. In addition, the pest or weed control at 500 g/ha in test [2] was 90%.

Consider `Cn1cc(C(=O)NS(=O)(=O)c2c(Cl)cccc2Cl)nc1-c1c(F)cccc1F` [Example 93], for which the pest or weed control at 20 ppm in test [1] turned out to be 90%; in test [3], 100%. The pest or weed control at 500 g/ha in test [2] was 90%.

With `Cn1cc(C(=O)NS(=O)(=O)c2c(Cl)cccc2Cl)nc1-c1ccccc1F` [Example 96], the pest or weed control at 20 ppm in test [1] and in test [3] was 100% throughout. In test [2], the pest or weed control at 500 g/ha came out at 100%.

Take `COc1ccc(Cl)c(S(=O)(=O)NC(=O)c2cn(C)c(-c3ccccc3C)n2)c1` [Example 98]: the values for the pest or weed control at 20 ppm in test [1] and in test [3] were 90% and 100%, respectively. Also, the pest or weed control at 500 g/ha in test [2] turned out to be 90%.

Consider `Cc1ccccc1-c1nc(C(=O)NS(=O)(=O)c2c(Cl)cccc2Cl)cn1C` [Example 99], for which the pest or weed control at 20 ppm in test [1] is 90%; in test [3] it was 100%. Moreover, the pest or weed control at 500 g/ha in test [2] was 90%.

`Cn1cc(C(=O)NS(=O)(=O)c2cccc(Cl)c2)nc1-c1c(F)cccc1Cl` [Example 113]: the pest or weed control at 20 ppm in test [1] and in test [3] was 100% in each case. In addition, in test [2], the pest or weed control at 500 g/ha came to 90%.

As for `Cn1cc(C(=O)NS(=O)(=O)c2ccc(Cl)cc2)nc1-c1c(F)cccc1Cl` [Example 114], the pest or weed control at 20 ppm in test [1] and in test [3] was 100% each time. Besides, in test [2], the pest or weed control at 500 g/ha was found to be 90%.

On to `Cn1cc(C(=O)NS(=O)(=O)c2ccccc2OC(F)(F)F)nc1-c1c(F)cccc1F` [Example 118], for which the pest or weed control at 20 ppm is 90% in test [1] and 100% in test [3]. For the same compound, the pest or weed control at 500 g/ha in test [2] is 100%.

On to `Cn1cc(C(=O)NS(=O)(=O)c2ccccc2Br)nc1-c1c(F)cccc1F` [Example 119], for which the pest or weed control at 20 ppm worked out at 90% in test [1] and 100% in test [3]. Moreover, in test [2], the pest or weed control at 500 g/ha was 100%.

In the case of `COc1ccc(Br)cc1S(=O)(=O)NC(=O)c1cn(C)c(-c2c(F)cccc2Cl)n1` [Example 156], the pest or weed control at 20 ppm in test [1] was found to be 90%; in test [3], 100%. Moreover, in test [2], the pest or weed control at 500 g/ha came out at 100%.

As to `Cn1cc(C(=O)NS(=O)(=O)c2ccc(C(F)(F)F)cc2Cl)nc1-c1c(F)cccc1F` [Example 441], the pest or weed control at 20 ppm in test [1] was found to be 100%. Besides, the pest or weed control at 500 g/ha in test [2] turned out to be 90%.

For the compound `Cn1cc(C(=O)NS(=O)(=O)c2ccc(C(F)(F)F)cc2Br)nc1-c1c(F)cccc1F` [Example 442], the pest or weed control at 20 ppm in test [1] came to 90%. For the same compound, the pest or weed control at 500 g/ha in test [2] came out at 90%.

Consider `Cc1ccccc1S(=O)(=O)NC(=O)c1cn(C)c(-c2cccc3c2OC(F)(F)O3)n1` [Example 542], for which, in test [1], the pest or weed control at 20 ppm is 100%. The pest or weed control at 500 g/ha in test [2] was determined as 90%.

For the origin of these results see patent publication US20200288710A1, “SUBSTITUTED SULPHONAMIDES FOR CONTROLLING ANIMAL PESTS” (BAYER CROPSCIENCE AKTIENGESELLSCHAFT, priority 2016, published 2020).
